Measurements taken from publication PMC6036575, “Reincarnation of Bacteriocins From the Lactobacillus Pangenomic Graveyard” (Frontiers in Microbiology, 2018).
No end group written: not given here.

Columns and labels:
[1] = tested on: E. saccharolyticus DPC 4902; test: Well diffusion assay, spectrum of bacteriocin activity; format: cell-based; conditions: 50 μl filtered supernatant of E. coli Tuner (DE3) transformants encoding the pediocin PA-1 leader, 7 mm wells, triplicate
Procedure: (§1) Bacteriocin activity was determined using well diffusion assays (WDAs). For Tuner^TM (DE3) E. coli transformants both the cell supernatant and the cell lysates were analyzed for antimicrobial activity, whilst only the supernatants were analyzed for L. paracasei NFBC338 cells. Supernatant was isolated by centrifugation of the liquid cultures at 4000 RCF for 15 min, these supernatants were then filtered using 0.20 μm membrane filters. For cell lysates, cell pellets were resuspended in 5 ml of phosphate-buffered saline (PBS), cells were lysed by sonication using a MSE Soniprep 150 (MSE, London, UK). Lysates were subsequently centrifuged at 4000 RCF for 15 min and the resulting supernatants were filtered using 0.20 μm membrane filters. For the indicator plates, 50 μl of an overnight culture of the indicator strain was added to the appropriate media containing 1% agar. Plates were cooled and 7 mm wells were bored in the agar. 50 μl of the cell supernatants/lysates being tested were added to each well and plates were refrigerated for 2 h prior to incubation under the appropriate conditions. WDAs were carried out in triplicate for each bacteriocin.
(§2) E. coli Tuner^TM (DE3) cells transformed with the newly constructed plasmids were grown in LB supplemented with glucose to maintain a low-copy number and bacteriocin expression was induced by co-incubation of the clones with 50 μM IPTG for 3 h. WDAs were used to identify bacteriocin activity from the bacterial supernatants and cell lysates. Bacteriocins were exclusively found in the bacterial supernatant. Antimicrobial activity was lower in cases where the native leader of the bacteriocin sequence was used; with only four of the nine strains displaying zones of inhibition against a sensitive indicator (pediocin 20336a has an identical leader to pediocin PA-1). For expression in L. paracasei NFBC338, cells were transformed by electroporation with the bacteriocin-containing pNZ44 vectors. Positive transformants were grown overnight and the neutralized cell free supernatant was used to identify bacteriocin production in WDAs.
(§3) The spectrum of activity was determined using WDAs against 32 indicator strains for bacteriocins produced by the E. coli transformants encoding the pediocin leader (Table 2). Despite being of the same class of bacteriocins, these novel antimicrobials display a varying spectrum of activity. […] Many of these bacteriocins, however, can inhibit a wide range of Gram positive bacteria including potential pathogens such as Enterococcus faecalis. As with most class IIa bacteriocins, these also display potent anti-listerial activity.

[2] = tested on: E.mundtii LMG 10748; test: as above; format: cell-based; conditions: 50 μl filtered supernatant of E. coli Tuner (DE3) transformants encoding the pediocin PA-1 leader, 7 mm wells, triplicate
Procedure: as §1, §2, §3

[3] = tested on: Enterococcus faecalis LMG 7397; test: as above; format: cell-based; conditions: 50 μl filtered supernatant of E. coli Tuner (DE3) transformants encoding the pediocin PA-1 leader, 7 mm wells, 1% agar, triplicate
Procedure: as §1, §2, §3

[4] = tested on: L. amylophilus DSM 20509; test: as above; format: cell-based; conditions: 50 μl filtered supernatant of E. coli Tuner (DE3) transformants encoding the pediocin PA-1 leader, 7 mm wells, triplicate
Procedure: as §1, §2, §3

[5] = tested on: L. amylovorus DSM 20531; test: as above; format: cell-based; conditions: 50 μl filtered supernatant of E. coli Tuner (DE3) transformants encoding the pediocin PA-1 leader, 7 mm wells, triplicate
Procedure: as §1, §2, §3

[6] = tested on: L. apodemi DSM 16654; test: as above; format: cell-based; conditions: 50 μl filtered supernatant of E. coli Tuner (DE3) transformants encoding the pediocin PA-1 leader, 7 mm wells, triplicate
Procedure: as §1, §2, §3

[7] = tested on: L. crustorum JCM 15951; test: as above; format: cell-based; conditions: 50 μl filtered supernatant of E. coli Tuner (DE3) transformants encoding the pediocin PA-1 leader, 7 mm wells, triplicate
Procedure: as §1, §2, §3

[8] = tested on: L. mali DSM 20444; test: as above; format: cell-based; conditions: 50 μl filtered supernatant of E. coli Tuner (DE3) transformants encoding the pediocin PA-1 leader, 7 mm wells, triplicate
Procedure: as §1, §2, §3

[9] = tested on: Li. monocytogenes DPC 6893; test: as above; format: cell-based; conditions: 50 μl filtered supernatant of E. coli Tuner (DE3) transformants encoding the pediocin PA-1 leader, 7 mm wells, triplicate
Procedure: as §1, §2, §3

[10] = tested on: Li. monocytogenes DPC 6894; test: as above; format: cell-based; conditions: 50 μl filtered supernatant of E. coli Tuner (DE3) transformants encoding the pediocin PA-1 leader, 7 mm wells, triplicate
Procedure: as §1, §2, §3

[11] = tested on: Li. monocytogenes WSL 1416; test: as above; format: cell-based; conditions: 50 μl filtered supernatant of E. coli Tuner (DE3) transformants encoding the pediocin PA-1 leader, 7 mm wells, triplicate
Procedure: as §1, §2, §3

[12] = tested on: Listeria innocua DPC 3572; test: as above; format: cell-based; conditions: 50 μl filtered supernatant of E. coli Tuner (DE3) transformants encoding the pediocin PA-1 leader, 7 mm wells, triplicate
Procedure: as §1, §2, §3

[13] = tested on: P. clausenii DSM 14800; test: as above; format: cell-based; conditions: 50 μl filtered supernatant of E. coli Tuner (DE3) transformants encoding the pediocin PA-1 leader, 7 mm wells, triplicate
Procedure: as §1, §2, §3

[14] = tested on: P. ethanolidurans DSM 22301; test: as above; format: cell-based; conditions: 50 μl filtered supernatant of E. coli Tuner (DE3) transformants encoding the pediocin PA-1 leader, 7 mm wells, triplicate
Procedure: as §1, §2, §3

[15] = tested on: 32 indicator strains; test: Well diffusion assays against the panel of 32 indicator strains; format: cell-based; conditions: for Total no. of strains inhibited: of 32 indicator strains, supernatant of E. coli transformants encoding the pediocin leader; for antimicrobial activity / spectrum, in words: crude supernatant from the E. coli heterologous host, pediocin PA-1 leader
Procedure: as §1, §2, §3

[16] = tested on: L. innocua DPC3572; test: Bacteriocin activity (BU/ml), dilution series in well diffusion assay; format: cell-based, Listeria innocua; conditions: inverse of the highest dilution of bacterial supernatant showing activity in a well diffusion assay
Procedure: as §1, §2

[17] = tested on: L. paralimentarius DSM 13961; test: Well diffusion assay, spectrum of bacteriocin activity; format: cell-based; conditions: 50 μl filtered supernatant of E. coli Tuner (DE3) transformants encoding the pediocin PA-1 leader, 7 mm wells, triplicate
Procedure: as §1, §2, §3

[18] = tested on: L. plantarum DSM 13273; test: as above; format: cell-based; conditions: 50 μl filtered supernatant of E. coli Tuner (DE3) transformants encoding the pediocin PA-1 leader, 7 mm wells, triplicate
Procedure: as §1, §2, §3

[19] = tested on: Pediococcus stilesii DSM 18001; test: as above; format: cell-based; conditions: 50 μl filtered supernatant of E. coli Tuner (DE3) transformants encoding the pediocin PA-1 leader, 7 mm wells, triplicate
Procedure: as §1, §2, §3

[20] = tested on: L. kimchicus JCM 15530; test: as above; format: cell-based; conditions: 50 μl filtered supernatant of E. coli Tuner (DE3) transformants encoding the pediocin PA-1 leader, 7 mm wells, triplicate
Procedure: as §1, §2, §3

[21] = tested on: L. nodensis DSM 16982; test: as above; format: cell-based; conditions: 50 μl filtered supernatant of E. coli Tuner (DE3) transformants encoding the pediocin PA-1 leader, 7 mm wells, triplicate
Procedure: as §1, §2, §3

[22] = produced by E. coli Tuner (DE3)
[23] = produced by L. paracasei NFBC338, neutralized cell free supernatant

Substance | radius of the zone of inhibition [1] [millimeters] | radius of the zone of inhibition [2] [millimeters] | radius of the zone of inhibition [3] [millimeters] | radius of the zone of inhibition [4] [millimeters] | radius of the zone of inhibition [6] [millimeters] | radius of the zone of inhibition [7] [millimeters] | radius of the zone of inhibition [8] [millimeters] | radius of the zone of inhibition [9] [millimeters] | radius of the zone of inhibition [10] [millimeters] | radius of the zone of inhibition [11] [millimeters] | radius of the zone of inhibition [12] [millimeters] | radius of the zone of inhibition [13] [millimeters] | radius of the zone of inhibition [14] [millimeters] | Total no. of strains inhibited [15] | Bacteriocin Activity (BU/ml) vs. L. innocua DPC3572 [16, 22] | Bacteriocin Activity (BU/ml) vs. L. innocua DPC3572 [16, 23] | radius of the zone of inhibition [17] [millimeters] | radius of the zone of inhibition [18] [millimeters] | radius of the zone of inhibition [19] [millimeters] | radius of the zone of inhibition [20] [millimeters] | also measured
–KYYGNGVYCG-KHKCRVDWGQAWGCSVNRWGAAVGTGGKATIGHC— (bicyclic or more) [Ruminicin (Rum), novel pediocin-like class IIa bacteriocin encoded by L. ruminis DSM 20403, heterologously expressed] | 2 ± 0 | 2 ± 0 | 1.17 ± 0.24 | 1.33 ± 0.47 | 1.67 ± 0.47 | 0.33 ± 0.47 | 2 ± 0 | 1 ± 0 | 2 ± 0 | 1 ± 0 | 3.33 ± 0.47 | 1 ± 0 | 2.17 ± 0.24 | 14 | +++ (+++ = 5120 – 10240 BU/ml) | +++ (+++ = 5120 – 10240 BU/ml) | – | – | – | – | radius of the zone of inhibition [5]: 0.67 millimeters
–KYYGNGVTCG-KHSCSVDWGKATTCIINNGAMAWATGGHQGNHKC—– (bicyclic or more) (KYYGNGVTCGKHSCSVDWGKATTCIINNGAMAWATGGHQGNHKC; not fully specified (bridges); cysteine pairing not given here; UniProt P29430 19-62, looked up) [Pediocin PA-1 (PedA), original class IIa bacteriocin of P. acidilactici LMG 2351, used as a control; heterologously expressed, reference compound] | 6 ± 0 | 5 ± 0 | 4.33 ± 0.47 | – | 3.33 ± 0.47 | 0.33 ± 0.47 | 7.67 ± 0.47 | 3 ± 0 | 5 ± 0 | 3.33 ± 0.94 | 8 ± 0 | – | 5.67 ± 0.47 | 14 | + (+ = 0 – 160 BU/ml) | ++ (++ = 320 – 2560 BU/ml) | 0.67 ± 0.47 | 0.33 ± 0.47 | 1 ± 0 | – | –
–KYYGNGLYCG-KHSCSVDWGKATTCIINNGAMAWATGGHQGTHKC—— (bicyclic or more) [Pediocin 20336a (Ped20336), novel pediocin-like class IIa bacteriocin encoded by P. pentosaceus DSM 20336, heterologously expressed] | 5.67 ± 0.47 | 4.67 ± 0.47 | 4 ± 0 | 0.33 ± 0.47 | 3.67 ± 0.47 | 1 ± 0 | 6.33 ± 0.47 | 2.67 ± 0.47 | 4.33 ± 0.47 | 3.33 ± 0.94 | 7.33 ± 0.47 | 0.67 ± 0.47 | 5.67 ± 0.47 | 18 | + (+ = 0 – 160 BU/ml) | + (+ = 0 – 160 BU/ml) | 1 ± 0.47 | 1.33 ± 0.47 | 1 ± 0 | 0.33 ± 0.47 | radius of the zone of inhibition [21]: 1.67 ± 0.47 millimeters; antimicrobial activity / spectrum, in words [15]: inhibited the growth of a larger number of the indicators tested than pediocin PA-1
–KYYGNGVSCTKKHGCKVNWGQAFTCSVNRFANFGH–G————-NC— (bicyclic or more) [Hordeiocin (Hrd), novel pediocin-like class IIa bacteriocin encoded by L. hordei DSM 19519, heterologously expressed] | 3.67 ± 0.47 | 2.67 ± 0.47 | 2.67 ± 0.47 | 2.50 ± 0.41 | 2.67 ± 0.47 | 1 ± 0 | 4.33 ± 0.47 | 2 ± 0 | 4 ± 0 | 2 ± 0.82 | 4.67 ± 0.47 | 2 ± 0 | 3.67 ± 0.47 | 18 | +++ (+++ = 5120 – 10240 BU/ml) | ++ (++ = 320 – 2560 BU/ml) | 1 ± 0.47 | 1.33 ± 0.47 | 1 ± 0 | 3 ± 0 | radius of the zone of inhibition [21]: 3.67 ± 0.47 millimeters; antimicrobial activity / spectrum, in words [15]: inhibited the growth of a larger number of the indicators tested than pediocin PA-1
